In brackets after ≈: the same amount, converted by molar mass. Several values for one entry are separate records, joined by “and”; a condition that tells them apart may be missing. Equal entries are not always repeated.
Tests used:
[1] = system: S. aureus AP607004 (MRQR); assay: MIC (CLSI broth microdilution); format: cell-based
N. gonorrhoeae ATCC49226 = assay: MIC (CLSI agar dilution); format: cell-based
Dog pharmacokinetics = format: in vivo, Beagle dog
Protocol: (§1) AZD0914 was analyzed in mouse, rat, dog, monkey plasma using a qualified method which was later validated for human plasma analysis. The validated human method is described below and is representative of the approach taken in other species. AZD0914 was determined in human plasma prepared with K2EDTA as an anticoagulant. AZD0914 and an internal standard (^13C2, ^15N2 AZD0914) were extracted from plasma with tert- butyl methyl ether. After evaporating to dryness under a stream of nitrogen, the residue was reconstituted and quantitated by reverse phase HPLC-MS/MS against a standard curve from 1.00 to 5000 ng/ml. Separation was achieved using a gradient which went from 55% to 85% methanol:acetonitrile (1:1) containing 0.2% formic acid as mobile phase B and 0.2% formic acid in water as mobile phase A at a flow rate of 0.60 ml/min through a Phenomonex Gemini C18 column (50 x 2.0 mm column, […]) heated using a Shimadzu CTO-20AC set to 40 °C. AZD0914 was detected in multiple reaction monitoring (MRM) mode by positive ion electrospray ionization using a Sciex API5500 (Toronto, Canada) mass spectrometer. The ion spray voltage was set to 5500 V and turboionspray temperature was 650 °C. AZD0914 was quantitated using the MRM transition 488.2 → 348.2 using a collision energy of 29 eV. The internal standard, (^13C2, ^15N2 AZD0914), was monitored using identical conditions except for the MRM transition of 492.2 → 348.2.

[2] = system: mammalian erythroid cell lines; assay: erythroid cytotoxicity (growth inhibition); format: cell-based; settings: read-out: Erythroid IC50
Protocol: (§2) In vitro toxicology. Experiments for assessing micronuclei in mouse lymphoma cells^19 myeloid cytotoxicity^20 and erythroid cytotoxicity^21 were performed as described previously.

[3] = system: mammalian myeloid cell lines; assay: myeloid cytotoxicity (growth inhibition); format: cell-based; settings: read-out: Myeloid IC50
Protocol: as §2

[4] = Single dose pharmacokinetics, rat; format: in vivo; settings: Han-Wister rat (male)
Protocol: as §1

USA300 NRS384 = assay: MIC (modal, CLSI broth microdilution); format: cell-based, S. aureus; settings: Staphylococcus aureus, read-out: Modal MIC
Chlamydia trachomatis = system: Chlamydia trachomatis; set-up: method as in ref 3 (supplement); settings: 10 tested; ref 3 (supplement); cited from earlier work
[5] = 28 day oral toxicology study, dog; settings: for Salient Pathology Findings: 1 month dog (po)
[6] = both, beagle, dog, plasma, po, 100 mg/kg/day
[7] = both, beagle, dog, plasma, po, 200 mg/kg/day
[8] = both, beagle, dog, plasma, po, 500 mg/kg/day

With `C[C@@H]1CN2c3c(cc4c(N5C(=O)OC[C@@H]5C)noc4c3F)CC3(C(=O)NC(=O)NC3=O)[C@H]2[C@H](C)O1` [ETX0914] the “MIC: S. aureus AP607004 (MRQR)” value [1] was 0.5 µg/mL (≈ 1.03 µM), the “MIC: N. gonorrhoeae ATCC49226” value (N. gonorrhoeae ATCC49226) was 0.125 µg/mL (≈ 0.256 µM) and the Ka (Dog pharmacokinetics; Beagle dog (male)) was 1.2 h⁻¹. For the same compound, the “Dog F” value (Dog pharmacokinetics; beagle, dog, plasma) was 71%, the clearance (Dog pharmacokinetics; beagle, dog, plasma) was 4 mL/min/kg and the clearance (Dog pharmacokinetics; plasma, Beagle dog (male), IV 2.5 mg/kg, read-out: Clp (IV)) was 4 mL/min/kg. For the same compound, the half-life (Dog pharmacokinetics; plasma, Beagle dog (male), IV 2.5 mg/kg, read-out: T1/2 (IV) (converted)) was 3 h, the Vd (Dog pharmacokinetics; plasma, Beagle dog (male), IV 2.5 mg/kg, read-out: Vss (IV)) was 0.8 L/kg and the bioavailability (Dog pharmacokinetics; plasma, Beagle dog (male), IV 2.5 / PO 5 mg/kg) was 71%. It also gave a Cmax (Dog pharmacokinetics; plasma, Beagle dog (male), PO 5 mg/kg) of 7.1 µM, a half-life (Dog pharmacokinetics; plasma, Beagle dog (male), PO 5 mg/kg, read-out: T1/2 (PO) (converted)) of 3.1 h and an IC50 [2] greater than 100 µM. It also gave an IC50 [3] greater than 100 µM, a Ka [4] of 1.6 h⁻¹ and a clearance ([4]; plasma, IV 10 mg/kg, read-out: Clp (IV)) of 22 mL/min/kg. It also gave a half-life ([4]; plasma, IV 10 mg/kg, read-out: T1/2 (IV) (converted)) of 0.7 h, a Vd ([4]; plasma, IV 10 mg/kg, read-out: Vss (IV)) of 1.2 L/kg and a bioavailability ([4]; plasma, IV 10 / PO 10 mg/kg) of 34%. For the same compound, the Cmax ([4]; plasma, PO 10 mg/kg) was 1.7 µM, the half-life ([4]; plasma, PO 10 mg/kg, read-out: T1/2 (PO) (converted)) was 1.8 h and the MIC (USA300 NRS384) was 0.25 µg/mL (≈ 0.513 µM). The MIC90 (Chlamydia trachomatis) was 0.25^3 µg/ml, the “MIC Range” value (Chlamydia trachomatis) was 0.06 to 0.5 µg/mL and the “Salient Pathology Findings” value ([5]; 200 mg/kg/day) was “Testes tubular degeneration partially reversible 3 months post dosing”. For the same compound, the “Salient Pathology Findings” value ([5]; 500 mg/kg/day) was “As above plus: Epididymis cellular debris Caecum/illium/rectum necrosis”, the NOAEL at 28 days ([5]; both, beagle, dog, in vivo, po) was 100 mg/kg and 100 mg/kg/day and the Cmax ([5]; both, beagle, dog, in vivo, po, 100 mg/kg) was 85 µg/mL. It also gave an AUC [5, 6] of 870 ± 240 µg·h/mL, a Cmax [5, 6] of 90 ± 22 µg/mL and an AUC [5, 7] of 2160 ± 460 µg·h/mL. For the same compound, the Cmax [5, 7] was 210 ± 18 µg/mL, the AUC [5, 8] was 2780 ± 1140 µg·h/mL and the Cmax [5, 8] was 220 ± 94 µg/mL. For the same compound, the “haematology or platelet count at the NOAEL” value ([5]; dog) was “no significant changes in haematology or platelet count”, the “finding at highest dose tested” value ([5]; dog, 500 mg/kg/day) was “tachycardia was observed” and the tolerated dose ([5]; dog, oral gavage, 28 days) was 500 mg/kg/day.

Source: PMC4501059, “Responding to the challenge of untreatable gonorrhea: ETX0914, a first-in-class agent with a distinct mechanism-of-action against bacterial Type II topoisomerases” (Scientific Reports, 2015)
